Here are results for 10 compounds from ChEMBL document CHEMBL1201862, “PubChem BioAssay data set” (2004).

Among the test systems are HCC 2998; HOP-92; SNB-19; MDA-MB-435; HT-29; T47D; SNB-75; HL-60; OVCAR-3; UO-31; HOP-62; RPMI-8226; SF-295; NCI/ADR-RES; COLO 205; SF-539; CAKI-1; SK-MEL-28; MOLT-4; HCT-15.
Holding throughout (experiment): NCI-60 cell line screen, 48 h

Molecules are shown by their SMILES.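 1) Cells in 96-well plates. 2) Compound, 48 h, 5 concentrations. 3) Linear interpolation between surrounding doses. 4) Unreached endpoint = highest concentration. Abbreviation: GI50, concentration required for 50% inhibition of growth.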 The source made the active and inactive calls. No stated cut-off is given here; in the data, active = GI50 up to about 1.1 µM and inactive = higher.

Turning to `Oc1ccc(SCc2cc(O)ccc2O)cc1`, the GI50 in the assay on HCC 2998 is 22.8 µM (inactive); in the assay with HOP-92 it was 22.3 µM (inactive); in the assay with SNB-19, 23.7 µM (inactive); in the assay on MDA-MB-435 it was 13.1 µM (inactive); with HT-29 it was 36 µM (inactive); in the assay on T47D, 8.39 µM (inactive). Besides, the GI50 was 20.9 µM (inactive) in the assay on SNB-75; 2.85 µM (inactive) in the assay on HL-60; 7.69 µM (inactive) in the assay with OVCAR-3; 6.05 µM (inactive) in the assay with UO-31; 14.8 µM (inactive) in the assay on HOP-62; 2.67 µM (inactive) with RPMI-8226. For the same compound, the GI50 with SF-295 was 15.6 µM (inactive); in the assay with NCI/ADR-RES, 14.4 µM (inactive); with COLO 205 it was 19.2 µM (inactive); in the assay with SF-539, 3.54 µM (inactive); in the assay with CAKI-1 it was 6.14 µM (inactive); in the assay on SK-MEL-28 it was 17.7 µM (inactive). In addition, the GI50 with MOLT-4 was 3.86 µM (inactive); with HCT-15, 9.55 µM.

In the case of `Nn1c(Sc2nc3ccccc3c(=O)n2N)nc2ccccc2c1=O`, the GI50 in the assay on HCC 2998 is 15.2 µM (inactive); in the assay on HOP-92 it was 6.92 µM (inactive); in the assay with SNB-19, 6.92 µM (inactive); in the assay with MDA-MB-435, 6.22 µM (inactive); with HT-29, 3.4 µM (inactive); in the assay on T47D it was 5.09 µM (inactive). In addition, the GI50 in the assay with SNB-75 is 11.6 µM (inactive); in the assay with HL-60, 2.51 µM (inactive); in the assay on OVCAR-3, 11.1 µM (inactive); in the assay on UO-31, 1.73 µM (inactive); in the assay with HOP-62, 16.6 µM (inactive); in the assay on RPMI-8226, 3.5 µM (inactive). The GI50 in the assay on SF-295 is 18.2 µM (inactive); in the assay on NCI/ADR-RES, 7.76 µM (inactive); in the assay on COLO 205 it was 13.8 µM (inactive); in the assay with SF-539, 2.48 µM (inactive); in the assay with CAKI-1 it was 6.37 µM (inactive); in the assay with SK-MEL-28 it was 4.84 µM (inactive). Further, the GI50 in the assay on MOLT-4 was 1.63 µM (inactive); in the assay on HCT-15 it was 3.37 µM.

Regarding `CC(C)C[S+]1C2=C(CC(C)(C)CC2=O)[N-]c2ccccc21` (stereo not given), the GI50 in the assay with HCC 2998, with HOP-92, in the assay on SNB-19, with MDA-MB-435, in the assay on HT-29 and in the assay with T47D was > 100 µM (inactive) each time. The GI50 with SNB-75, in the assay with HL-60, in the assay on OVCAR-3, in the assay with UO-31, with HOP-62 and with RPMI-8226 was > 100 µM (inactive) in each case. Also, the GI50 in the assay on SF-295, with NCI/ADR-RES, with COLO 205, in the assay on SF-539, with CAKI-1 and in the assay on SK-MEL-28 was > 100 µM (inactive) each time. The GI50 is 67.8 µM (inactive) in the assay on MOLT-4 and more than 100 µM with HCT-15.

Turning to `CC(C)(C)OC(=O)N(CCCCNCc1ccc2ccccc2c1)CCCNCc1ccc2ccccc2c1`, the GI50 in the assay with HCC 2998 is 0.254 µM (active); in the assay on HOP-92 it was 1.64 µM (inactive); with SNB-19, 1.76 µM (inactive); in the assay on MDA-MB-435 it was 1.84 µM (inactive); in the assay on HT-29, 0.893 µM (active); in the assay on T47D it was 1.74 µM (inactive). The GI50 with SNB-75 is 1.52 µM (inactive); with HL-60, 0.204 µM (active); in the assay on OVCAR-3 it was 1.93 µM (inactive); with UO-31 it was 1.73 µM (inactive); in the assay with HOP-62, 1.86 µM (inactive); in the assay with RPMI-8226, 1.08 µM (active). For the same compound, the GI50 is 1.9 µM (inactive) in the assay with SF-295; 1.57 µM (inactive) in the assay with NCI/ADR-RES; 1.17 µM (inactive) with COLO 205; 1.44 µM (inactive) in the assay on SF-539; 1.17 µM (inactive) in the assay on CAKI-1; 1.8 µM (inactive) in the assay with SK-MEL-28. The GI50 in the assay with MOLT-4 was 0.708 µM (active); in the assay with HCT-15 it was 1.57 µM.

Consider `O=S(=O)(Nc1nc2ccccc2nc1Nc1ccc2ccccc2c1)c1ccccc1`, for which the GI50 is 7.1 µM (inactive) in the assay on HCC 2998; 5.06 µM (inactive) in the assay on HOP-92; 9.42 µM (inactive) in the assay on SNB-19; 10.8 µM (inactive) in the assay with MDA-MB-435; 11 µM (inactive) in the assay with HT-29; 5.68 µM (inactive) with T47D. Besides, the GI50 in the assay with SNB-75 was 26.5 µM (inactive); with HL-60, 5.77 µM (inactive); in the assay on OVCAR-3, 1.87 µM (inactive); with UO-31, 3.61 µM (inactive); with HOP-62, 10.7 µM (inactive); with RPMI-8226 it was 2.44 µM (inactive). Besides, the GI50 with SF-295 is 5.07 µM (inactive); in the assay with NCI/ADR-RES, 5.73 µM (inactive); in the assay on COLO 205, 12.4 µM (inactive); with SF-539, 15.3 µM (inactive); with CAKI-1 it was 27.4 µM (inactive); in the assay with SK-MEL-28, 12.1 µM (inactive). In addition, the GI50 in the assay with MOLT-4 was 5.24 µM (inactive); in the assay with HCT-15, 11.1 µM.

For the compound `Cc1cc(S(=O)(=O)Nc2nnc3c(Cl)cc(C(F)(F)F)cn23)c(S)cc1Cl`, the GI50 is 44.8 µM (inactive) with HCC 2998; > 100 µM (inactive) with HOP-92; 25.1 µM (inactive) with SNB-19; 45.5 µM (inactive) in the assay on MDA-MB-435; 37.2 µM (inactive) in the assay with HT-29; 37.2 µM (inactive) in the assay on T47D. Moreover, the GI50 was 4.88 µM (inactive) with SNB-75; > 100 µM (inactive) with HL-60; 49.9 µM (inactive) with OVCAR-3; 30.2 µM (inactive) in the assay with UO-31; 54.5 µM (inactive) with HOP-62; > 100 µM (inactive) in the assay on RPMI-8226. Also, the GI50 in the assay on SF-295 was 71.8 µM (inactive); in the assay on NCI/ADR-RES, > 80.4 µM (inactive); in the assay on COLO 205 it was > 68.4 µM (inactive); with SF-539, 35.7 µM (inactive); in the assay on CAKI-1, > 89.3 µM (inactive); in the assay on SK-MEL-28, > 100 µM (inactive). Moreover, the GI50 in the assay on MOLT-4 was 75.9 µM (inactive); in the assay on HCT-15, 58.1 µM.

For `c1ccc2c(c1)-c1ccccc1C2N1CC2CCC(CC2)C1`, the GI50 in the assay on HCC 2998 was 16.9 µM (inactive); in the assay with HOP-92, 17.5 µM (inactive); in the assay on SNB-19, 29.4 µM (inactive); with MDA-MB-435 it was 25.1 µM (inactive); with HT-29, 16.8 µM (inactive); in the assay with T47D, 20.7 µM (inactive). For the same compound, the GI50 in the assay with SNB-75 was 27 µM (inactive); in the assay with HL-60, 2.92 µM (inactive); in the assay on OVCAR-3 it was 20.4 µM (inactive); in the assay with UO-31, 28.8 µM (inactive); in the assay on HOP-62, 25.2 µM (inactive); in the assay with RPMI-8226, 20.4 µM (inactive). The GI50 in the assay on SF-295 was 19.3 µM (inactive); in the assay on NCI/ADR-RES it was 15.5 µM (inactive); in the assay with COLO 205, 20.5 µM (inactive); with SF-539, 24.1 µM (inactive); in the assay with CAKI-1 it was 32 µM (inactive); in the assay on SK-MEL-28 it was 33.3 µM (inactive). The GI50 with MOLT-4 is 12.3 µM (inactive); in the assay on HCT-15, 16.8 µM.

In the case of `COC(=O)c1ccc(C)cc1/C=C1\Cc2ccc(C)cc2C1=O`, the GI50 with HCC 2998 was 19.7 µM (inactive); in the assay on HOP-92, 15.5 µM (inactive); in the assay with SNB-19, 17.2 µM (inactive); with MDA-MB-435 it was 4.28 µM (inactive); in the assay on HT-29, 4.73 µM (inactive); with T47D, 17.1 µM (inactive). Also, the GI50 in the assay on SNB-75 is 5.64 µM (inactive); in the assay with HL-60 it was 4.78 µM (inactive); in the assay with OVCAR-3 it was 6.52 µM (inactive); with UO-31, 11 µM (inactive); in the assay with HOP-62, 15.5 µM (inactive); in the assay on RPMI-8226, 11.8 µM (inactive). Also, the GI50 was 15.3 µM (inactive) in the assay on SF-295; 29.4 µM (inactive) in the assay with NCI/ADR-RES; 8.63 µM (inactive) in the assay with COLO 205; 12.4 µM (inactive) in the assay on SF-539; 26.3 µM (inactive) in the assay with CAKI-1; 16.6 µM (inactive) in the assay on SK-MEL-28. The GI50 with MOLT-4 was 13.2 µM (inactive); in the assay with HCT-15 it was 13 µM.

With `CCC(=O)/C=C/c1ccccc1`, the GI50 in the assay with HCC 2998 was 63.1 µM (inactive); with HOP-92, > 100 µM (inactive); in the assay on SNB-19, 44 µM (inactive); in the assay with MDA-MB-435, 33.8 µM (inactive); with HT-29, 43.7 µM (inactive); in the assay on T47D, > 100 µM (inactive). In addition, the GI50 with SNB-75 was > 100 µM (inactive); with HL-60 it was 33.4 µM (inactive); in the assay on OVCAR-3, 67.6 µM (inactive); with UO-31, 76.6 µM (inactive); in the assay on HOP-62, > 100 µM (inactive); in the assay with RPMI-8226, 54.3 µM (inactive). Besides, the GI50 in the assay with SF-295 was 73.5 µM (inactive); in the assay on NCI/ADR-RES, 47.6 µM (inactive); in the assay with COLO 205, > 100 µM (inactive); with SF-539, 53 µM (inactive); in the assay on CAKI-1 it was 56.1 µM (inactive); in the assay with SK-MEL-28 it was 54 µM (inactive). The GI50 was 26 µM (inactive) in the assay with MOLT-4 and 35.9 µM with HCT-15.

For `C[C@@H]1[C@@H](C)C(c2ccccc2)O[Si]1(C(C)(C)C)C(C)(C)C` (stereo not given in full), the GI50 in the assay with HCC 2998 is 19.8 µM (inactive); in the assay with HOP-92, 21.5 µM (inactive); in the assay on SNB-19, 13.8 µM (inactive); in the assay on MDA-MB-435 it was 25.6 µM (inactive); in the assay with HT-29, 15.2 µM (inactive); in the assay with T47D, 19.1 µM (inactive). The GI50 is 16 µM (inactive) in the assay on SNB-75; > 10 µM (inactive) with HL-60; 16.5 µM (inactive) in the assay on OVCAR-3; 17.2 µM (inactive) in the assay on UO-31; 17.5 µM (inactive) in the assay with HOP-62; 20.6 µM (inactive) with RPMI-8226. The GI50 is 16.6 µM (inactive) with SF-295; 18.1 µM (inactive) in the assay with NCI/ADR-RES; 15.7 µM (inactive) in the assay with COLO 205; 17 µM (inactive) with SF-539; 17.1 µM (inactive) in the assay with CAKI-1; 24.9 µM (inactive) in the assay on SK-MEL-28. Besides, the GI50 in the assay on MOLT-4 was 16 µM (inactive); in the assay with HCT-15, 23.1 µM.
